Test results: patent US9096593B2, “Compounds and methods for kinase modulation, and indications therefor” (Plexxikon Inc., priority 2009, dated 2015)
Like-named read-outs stand apart in the source and are kept apart here.

How the values were obtained:
[1] = biological target: BCR-FMS/BaF3 cells (Homo sapiens, UniProt P07333); test: BCR-FMS/BaF3 cell proliferation assay (ATPlite); format: cell-based
Procedure, shortened: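 BCR-FMS/BaF3 cells at 2×10^5 cells/mL in growth media with 1 mg/mL G418, without WEHI/IL-3, treated with 8-point 1:3 compound titrations (top 10 μM final) for 3 days at 37 °C, 5% CO2. Cell number by ATPlite luminescence; IC50 from signal versus concentration.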

[2] = biological target: BCR-KIT/BaF3 cells (Homo sapiens, UniProt P10721); test: BCR-KIT/BaF3 cell proliferation assay (ATPlite); format: cell-based; settings: read-out: BCR/BaF3 (IC50 μM) Kit
Procedure, shortened: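 BCR-KIT/BaF3 cells plated at 10,000/well in G418-containing medium without IL-3/WEHI; MV-4-11 at 25,000/well in medium with 10% FBS. Compound given as 8-point 1:3 titration, top 10 μM final, 3 days at 37 °C. Viability read as ATPlite luminescence; IC50 from concentration curve.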

[3] = Kit IC50/Fms IC50, BCR-KIT/BaF3 vs BCR-FMS/BaF3 cells
[4] = read-out: BCR/BaF3 (IC50 μM) Fms; BCR-FMS/BaF3 cells
[5] = read-out: Cell based (IC50 μM) BCR/BaF3 (Fms); BCR-FMS/BaF3 cells, 3 days
[6] = BCR-FMS/BaF3 cells; read-out: BCR/BaF3 (IC50 μM) Fms

BCR-FMS/BaF3 cells, sequence (P07333 20-972 limits assumed, change not shown): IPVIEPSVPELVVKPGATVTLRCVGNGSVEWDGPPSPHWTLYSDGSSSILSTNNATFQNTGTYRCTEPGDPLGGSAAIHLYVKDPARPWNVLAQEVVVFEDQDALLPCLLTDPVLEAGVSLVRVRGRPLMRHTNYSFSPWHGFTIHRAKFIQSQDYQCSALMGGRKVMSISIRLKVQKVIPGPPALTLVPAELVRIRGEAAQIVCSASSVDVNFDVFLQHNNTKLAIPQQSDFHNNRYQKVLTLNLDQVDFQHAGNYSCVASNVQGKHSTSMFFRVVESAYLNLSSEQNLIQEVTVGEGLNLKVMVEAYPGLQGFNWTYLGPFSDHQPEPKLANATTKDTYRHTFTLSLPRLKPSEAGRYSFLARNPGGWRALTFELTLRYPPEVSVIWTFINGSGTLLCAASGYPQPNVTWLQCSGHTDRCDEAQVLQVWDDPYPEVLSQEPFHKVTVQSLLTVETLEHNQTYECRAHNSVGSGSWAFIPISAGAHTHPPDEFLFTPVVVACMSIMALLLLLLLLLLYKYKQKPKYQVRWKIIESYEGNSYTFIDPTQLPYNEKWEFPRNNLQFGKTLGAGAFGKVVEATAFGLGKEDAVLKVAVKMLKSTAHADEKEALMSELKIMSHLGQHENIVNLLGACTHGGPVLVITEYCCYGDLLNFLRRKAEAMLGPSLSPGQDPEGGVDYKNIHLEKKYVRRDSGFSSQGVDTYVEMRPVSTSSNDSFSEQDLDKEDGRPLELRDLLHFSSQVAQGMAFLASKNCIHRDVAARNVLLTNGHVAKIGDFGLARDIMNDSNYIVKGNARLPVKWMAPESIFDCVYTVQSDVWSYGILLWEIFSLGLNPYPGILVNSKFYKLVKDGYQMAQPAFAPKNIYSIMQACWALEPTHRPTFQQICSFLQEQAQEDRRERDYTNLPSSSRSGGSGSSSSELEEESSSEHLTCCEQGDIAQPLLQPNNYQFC
BCR-KIT/BaF3 cells, sequence (P10721 26-976 limits assumed, change not shown): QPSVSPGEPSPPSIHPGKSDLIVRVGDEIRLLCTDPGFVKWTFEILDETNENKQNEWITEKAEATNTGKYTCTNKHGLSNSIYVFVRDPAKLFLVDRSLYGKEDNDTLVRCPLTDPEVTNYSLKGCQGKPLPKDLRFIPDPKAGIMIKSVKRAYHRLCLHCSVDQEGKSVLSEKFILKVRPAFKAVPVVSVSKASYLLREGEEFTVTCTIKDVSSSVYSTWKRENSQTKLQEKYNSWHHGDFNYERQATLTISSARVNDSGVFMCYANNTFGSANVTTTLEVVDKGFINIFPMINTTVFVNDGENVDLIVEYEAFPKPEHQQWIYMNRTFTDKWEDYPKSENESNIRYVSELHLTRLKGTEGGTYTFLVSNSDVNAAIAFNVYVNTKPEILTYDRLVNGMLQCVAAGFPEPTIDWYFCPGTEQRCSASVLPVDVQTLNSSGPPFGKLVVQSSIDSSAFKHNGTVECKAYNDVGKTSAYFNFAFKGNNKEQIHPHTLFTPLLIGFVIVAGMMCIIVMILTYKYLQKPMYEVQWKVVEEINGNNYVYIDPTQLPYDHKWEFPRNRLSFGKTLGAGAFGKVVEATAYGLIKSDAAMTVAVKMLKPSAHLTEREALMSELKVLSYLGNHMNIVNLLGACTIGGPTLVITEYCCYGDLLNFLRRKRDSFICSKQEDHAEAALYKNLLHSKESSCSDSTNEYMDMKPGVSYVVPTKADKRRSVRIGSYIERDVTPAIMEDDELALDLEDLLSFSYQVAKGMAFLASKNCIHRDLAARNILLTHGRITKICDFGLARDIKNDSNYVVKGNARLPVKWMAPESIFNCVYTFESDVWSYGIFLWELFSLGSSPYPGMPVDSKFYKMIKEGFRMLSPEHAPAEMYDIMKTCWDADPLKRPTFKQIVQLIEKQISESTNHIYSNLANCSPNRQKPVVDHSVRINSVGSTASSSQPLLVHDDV

SMILES: CCS(=O)(=O)Nc1ccccc1CNc1ccc(Cc2c[nH]c3ncc(C)cc23)c(F)n1 [Compound P-2198, Ethanesulfonic acid (2-{[6-fluoro-5-(5-methyl-1H-pyrrolo[2,3-b]pyridin-3-ylmethyl)-pyridin-2-ylamino]-methyl}-phenyl)-amide]
- BCR/BaF3 selectivity (Kit IC50/Fms IC50) [1, 3]: <20
- IC50 [1, 4]: < 0.1 µM
- IC50 [2]: > 0.1 µM

SMILES: COc1ncccc1CNc1ccc(Cc2c[nH]c3ncccc23)c(F)n1 [Compound P-2045, [6-Fluoro-5-(1H-pyrrolo[2,3-b]pyridin-3-ylmethyl)-pyridin-2-yl]-(2-methoxy-pyridin-3-ylmethyl)-amine]
- BCR/BaF3 selectivity (Kit IC50/Fms IC50) [1, 3]: >20
- IC50 [1, 4]: < 0.1 µM
- IC50 [2]: > 0.1 µM

SMILES: COc1ccc(CNc2ccc(Cc3c[nH]c4ncc(C)cc34)c(F)n2)cn1 [Compound P-2029, [6-Fluoro-5-(5-methyl-1H-pyrrolo[2,3-b]pyridin-3-ylmethyl)-pyridin-2-yl]-(6-methoxy-pyridin-3-ylmethyl)-amine]
- BCR/BaF3 selectivity (Kit IC50/Fms IC50) [1, 3]: >20
- IC50 [1, 4]: < 0.1 µM
- IC50 [1, 5]: < 0.1 µM
- IC50 [2]: > 0.1 µM

SMILES: Cn1cc(F)cc(CNc2ncc(Cc3c[nH]c4ncc(Cl)cc34)cn2)c1=O [Compound P-2157, 3-{[5-(5-Chloro-1H-pyrrolo[2,3-b]pyridin-3-ylmethyl)-pyrimidin-2-ylamino]-methyl}-5-fluoro-1-methyl-1H-pyridin-2-one]
- BCR/BaF3 selectivity (Kit IC50/Fms IC50) [1, 3]: >20
- IC50 [1, 4]: < 0.1 µM
- IC50 [2]: > 0.1 µM

SMILES: COc1ncc(F)cc1CNc1ncc(Cc2c[nH]c3ncc(C)cc23)cn1 [Compound P-2061, (5-Fluoro-2-methoxy-pyridin-3-ylmethyl)-[5-(5-methyl-1H-pyrrolo[2,3-b]pyridin-3-ylmethyl)-pyrimidin-2-yl]-amine]
- BCR/BaF3 selectivity (Kit IC50/Fms IC50) [1, 3]: >20
- IC50 [1, 4]: < 0.1 µM
- IC50 [2]: > 0.1 µM

SMILES: COc1ccc(CNc2ncc(Cc3c[nH]c4ncc(Cl)cc34)s2)cn1 [Compound P-2154, [5-(5-Chloro-1H-pyrrolo[2,3-b]pyridin-3-ylmethyl)-thiazol-2-yl]-(6-methoxy-pyridin-3-ylmethyl)-amine]
- IC50 [1, 6]: < 0.1 µM
- BCR/BaF3 selectivity (Kit IC50/Fms IC50) [1, 3]: <20
- IC50 [2]: > 0.1 µM

SMILES: COc1ncc(CNc2ccc(Cc3c[nH]c4ncc(Cl)cc34)c(F)n2)cc1F [Compound P-2165, [5-(5-Chloro-1H-pyrrolo[2,3-b]pyridin-3-ylmethyl)-6-fluoro-pyridin-2-yl]-(5-fluoro-6-methoxy-pyridin-3-ylmethyl)-amine]
- BCR/BaF3 selectivity (Kit IC50/Fms IC50) [1, 3]: >20
- IC50 [1, 4]: < 0.1 µM
- IC50 [1, 5]: < 0.1 µM
- IC50 [2]: > 0.1 µM

SMILES: COc1ncccc1CNc1ccc(Cc2c[nH]c3ncc(C)cc23)c(F)n1 [Compound P-2052, [6-Fluoro-5-(5-methyl-1H-pyrrolo[2,3-b]pyridin-3-ylmethyl)-pyridin-2-yl]-(2-methoxy-pyridin-3-ylmethyl)-amine]
- BCR/BaF3 selectivity (Kit IC50/Fms IC50) [1, 3]: >20
- IC50 [1, 4]: < 0.1 µM
- IC50 [2]: > 0.1 µM

SMILES: Fc1ccc(CNc2ncc(Cc3c[nH]c4ncc(Cl)cc34)cn2)cc1F [Compound P-2008, [5-(5-Chloro-1H-pyrrolo[2,3-b]pyridin-3-ylmethyl)-pyrimidin-2-yl]-(3,4-difluoro-benzyl)-amine]
- IC50 [1, 6]: < 0.1 µM
- BCR/BaF3 selectivity (Kit IC50/Fms IC50) [1, 3]: <20
- IC50 [2]: > 0.1 µM

SMILES: Fc1cncc(CNc2ccc(Cc3c[nH]c4ncc(Cl)cc34)c(F)n2)c1 [Compound P-2001, [5-(5-Chloro-1H-pyrrolo[2,3-b]pyridin-3-ylmethyl)-6-fluoro-pyridin-2-yl]-(5-fluoro-pyridin-3-ylmethyl)-amine]
- BCR/BaF3 selectivity (Kit IC50/Fms IC50) [1, 3]: >20
- IC50 [1, 4]: < 0.1 µM
- IC50 [2]: > 0.1 µM

SMILES: Cc1cnc2[nH]cc(Cc3ccc(NCc4cccnc4F)nc3F)c2c1 [Compound P-2103, [6-Fluoro-5-(5-methyl-1H-pyrrolo[2,3-b]pyridin-3-ylmethyl)-pyridin-2-yl]-(2-fluoro-pyridin-3-ylmethyl)-amine]
- BCR/BaF3 selectivity (Kit IC50/Fms IC50) [1, 3]: <20
- IC50 [1, 4]: < 0.1 µM
- IC50 [2]: > 0.1 µM

SMILES: Cc1cnc2[nH]cc(Cc3cnc(NCc4cccc(N5CCCC5)n4)nc3)c2c1 [Compound P-2082, [5-(5-Methyl-1H-pyrrolo[2,3-b]pyridin-3-ylmethyl)-pyrimidin-2-yl]-(6-pyrrolidin-1-yl-pyridin-2-ylmethyl)-amine]
- BCR/BaF3 selectivity (Kit IC50/Fms IC50) [1, 3]: <20
- IC50 [1, 4]: < 0.1 µM
- IC50 [2]: > 0.1 µM

SMILES: COc1ncc(CNc2ncc(Cc3c[nH]c4ncc(C)cc34)cn2)cc1F [Compound P-2073, (5-Fluoro-6-methoxy-pyridin-3-ylmethyl)-[5-(5-methyl-1H-pyrrolo[2,3-b]pyridin-3-ylmethyl)-pyrimidin-2-yl]-amine]
- BCR/BaF3 selectivity (Kit IC50/Fms IC50) [1, 3]: >20
- IC50 [1, 4]: < 0.1 µM
- IC50 [2]: > 0.1 µM

SMILES: COc1ccc(CNc2ncc(Cc3c[nH]c4ncc(Cl)cc34)cn2)cn1 [Compound P-2038, [5-(5-Chloro-1H-pyrrolo[2,3-b]pyridin-3-ylmethyl)-pyrimidin-2-yl]-(6-methoxy-pyridin-3-ylmethyl)-amine]
- BCR/BaF3 selectivity (Kit IC50/Fms IC50) [1, 3]: >20
- IC50 [1, 4]: < 0.1 µM
- IC50 [1, 5]: < 0.1 µM
- IC50 [2]: > 0.1 µM

SMILES: COc1cccc(CNc2ncc(Cc3c[nH]c4ncc(Cl)cc34)s2)n1 [Compound P-2163, [5-(5-Chloro-1H-pyrrolo[2,3-b]pyridin-3-ylmethyl)-thiazol-2-yl]-(6-methoxy-pyridin-2-ylmethyl)-amine]
- IC50 [1, 6]: < 0.1 µM
- BCR/BaF3 selectivity (Kit IC50/Fms IC50) [1, 3]: <20
- IC50 [2]: > 0.1 µM

SMILES: COc1ccc(CNc2ncc(Cc3c[nH]c4ncc(C)cc34)cc2C)cn1 [Compound P-1554, (6-Methoxy-pyridin-3-ylmethyl)-[3-methyl-5-(5-methyl-1H-pyrrolo[2,3-b]pyridin-3-ylmethyl)-pyridin-2-yl]-amine]
- IC50 [1, 6]: < 0.1 µM
- BCR/BaF3 selectivity (Kit IC50/Fms IC50) [1, 3]: <20
- IC50 [2]: > 0.1 µM

SMILES: Cc1cnc2[nH]cc(Cc3ccc(NCc4ccc(C(F)(F)F)nc4)nc3F)c2c1 [Compound P-2031, [6-Fluoro-5-(5-methyl-1H-pyrrolo[2,3-b]pyridin-3-ylmethyl)-pyridin-2-yl]-(6-trifluoromethyl-pyridin-3-ylmethyl)-amine]
- BCR/BaF3 selectivity (Kit IC50/Fms IC50) [1, 3]: >20
- IC50 [1, 4]: < 0.1 µM
- IC50 [1, 5]: < 0.1 µM
- IC50 [2]: > 0.1 µM

SMILES: Cc1cnc2[nH]cc(Cc3cnc(NCc4ccc(C(F)(F)F)nc4)c(F)c3)c2c1 [Compound P-2146, [3-Fluoro-5-(5-methyl-1H-pyrrolo[2,3-b]pyridin-3-ylmethyl)-pyridin-2-yl]-(6-trifluoromethyl-pyridin-3-ylmethyl)-amine]
- BCR/BaF3 selectivity (Kit IC50/Fms IC50) [1, 3]: <20
- IC50 [1, 4]: < 0.1 µM
- IC50 [2]: > 0.1 µM
